Results on six molecules are retold here after ChEMBL document CHEMBL1158472, “Carbonic anhydrase-encoded dynamic constitutional libraries: toward the discovery of isozyme-specific inhibitors” (J Med Chem, 2009).

The term Ki denotes the equilibrium dissociation constant of an inhibitor or competing ligand from its target.

One assay concerns the target Carbonic anhydrase 1 (Homo sapiens, UniProt P00915). As to the kind of experiment: Inhibition of human erythrocytes carbonic anhydrase 1 by CO2 hydration assay.
In assay [1] the target is T1, Carbonic anhydrase 2 (Homo sapiens, UniProt P00918). Put plainly: Inhibition of human erythrocytes carbonic anhydrase 2 by CO2 hydration assay.
Assay [2] deals with T1, Carbonic anhydrase 2. Put plainly: Binding affinity to human carbonic anhydrase 2.

Chain of Carbonic anhydrase 1 (P00915 whole entry): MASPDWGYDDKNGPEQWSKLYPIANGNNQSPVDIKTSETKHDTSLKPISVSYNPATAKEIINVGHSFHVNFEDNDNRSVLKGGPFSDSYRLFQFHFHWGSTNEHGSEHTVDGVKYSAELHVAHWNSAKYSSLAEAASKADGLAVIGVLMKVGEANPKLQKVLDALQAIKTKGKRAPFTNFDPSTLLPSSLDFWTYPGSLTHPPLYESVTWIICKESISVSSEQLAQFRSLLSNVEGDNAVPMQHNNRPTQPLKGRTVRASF

Take `O=C(O)c1cccc(CNCc2ccccc2)c1`: the Ki on Carbonic anhydrase 1 and at Carbonic anhydrase 2 [1] was over 100 µM each time.

For `Cc1ccc(S(=O)(=O)O)cc1`, affinity at Carbonic anhydrase 2 [2] was put at a Ki of 460 µM.

In the case of `Fc1ccccc1/C=N/Cc1ccccc1`, the Ki on Carbonic anhydrase 1 and at Carbonic anhydrase 2 [1] was over 100 µM in each case.

Consider `Fc1ccccc1CNCc1ccccc1`, for which the Ki at Carbonic anhydrase 1 and on Carbonic anhydrase 2 [1] was over 100 µM each time.

In the case of `O=S(=O)(O)c1ccc(/C=N/Cc2ccccc2)o1`, on Carbonic anhydrase 2 [1], the Ki was over 100 µM.

For `O=C(O)c1cccc(/C=N/Cc2ccccc2)c1`, the Ki at Carbonic anhydrase 1 and at Carbonic anhydrase 2 [1] was over 100 µM throughout.
